Test results taken from PMC7914897, “Cytotoxic Potential of a-Azepano- and 3-Amino-3,4-SeCo-Triterpenoids” (International Journal of Molecular Sciences, 2021).

Key:
[1] = test system: Ovarian Cancer subpanel; experiment: NCI-60 screen, subpanel; details: Homo sapiens; for IC (TGI): 48 h, read-out: TGI MG_MID; for GI50: read-out: GI50 MG_MID; for CC50: read-out: LC50 MG_MID
[2] = test system: HOP-62 (NSC lung cancer); experiment: NCI-60 screen (SRB, 48 h); details: Homo sapiens; for GI50: HOP-62; for IC (TGI): HOP-62, 48 h, read-out: TGI
[3] = test system: A498 (Renal cancer); experiment: NCI-60 screen (SRB, 48 h); details: Homo sapiens; for GI50: A498; for IC (TGI): A498, 48 h, read-out: TGI; for CC50: A498, read-out: LC50
[4] = test system: NCI-H522 (NSC lung cancer); experiment: NCI-60 screen (SRB, 48 h); details: Homo sapiens; for GI50: NCI-H522; for IC (TGI): NCI-H522, 48 h, read-out: TGI
[5] = test system: TK-10 (Renal cancer); experiment: NCI-60 screen (SRB, 48 h); details: Homo sapiens; for GI50: TK-10; for IC (TGI): TK-10, 48 h, read-out: TGI
[6] = test system: HT29 (colorectal carcinoma); experiment: SRB cytotoxicity assay, 72 h; assay type: cell-based, human; details: Homo sapiens, HT-29; HT29, 72 h, cut-off 30 µM; read-out: EC50
Experimental: (§1) The cytotoxicity of compounds 1–20 was evaluated by means of a colorimetric sulforhodamine B (SRB) assay. For all compounds, the EC50 values were determined for the human tumor cell lines A375 (malignant melanoma), HT29 (colorectal carcinoma), MCF-7 (breast carcinoma), A2780 (ovarian carcinoma), FaDu (hypopharyngeal carcinoma), and NIH 3T3 (non-malignant mouse fibroblasts).
(§2) In short, exponentially growing cells were seeded into 96-well plates on day 0 at the appropriate cell densities to prevent confluence of the cells during the period of experiment. After 24 h, the cells were treated with serial dilutions of the compounds (0–30 µM) for 72 h. The final concentration of DMSO never exceeded 0.5%, which was non-toxic to the cells. After a 72 h treatment, the supernatant medium from the 96-well plates was discarded, and the cells were fixed with 10% TCA. For a thorough fixation, the plates were allowed to rest at 4 °C. After fixation, the cells were washed in a strip washer. The washing was done four times with water using alternate dispensing and aspiration procedures. The plates were then dyed with 100 µL of 0.4% SRB for about 20 min. After dying, the plates were washed with 1% acetic acid to remove the excess of the dye and allowed to air-dry overnight. Tris base solution (200 µL, 10 mM) was added to each well and absorbance was measured at λ = 570 nm (using a 96 well plate reader, Tecan Spectra, Crailsheim, Germany). The percentages of surviving cells relative to untreated controls were determined.

[7] = test system: A2780 (ovarian carcinoma); experiment: SRB cytotoxicity assay, 72 h; assay type: cell-based, human; details: Homo sapiens; A2780, 72 h, cut-off 30 µM; read-out: EC50
Experimental: as §1, §2

[8] = test system: MCF-7 (breast carcinoma); experiment: SRB cytotoxicity assay, 72 h; assay type: cell-based, human; details: Homo sapiens, MCF7; MCF-7, 72 h, cut-off 30 µM; read-out: EC50
Experimental: as §1, §2

[9] = test system: FaDu (hypopharyngeal carcinoma); experiment: SRB cytotoxicity assay, 72 h; assay type: cell-based, human; details: Homo sapiens, cut-off 30 µM, read-out: EC50
Experimental: as §1, §2

[10] = test system: A375 (malignant melanoma); experiment: SRB cytotoxicity assay, 72 h; assay type: cell-based, human; details: Homo sapiens, A-375, 72 h, A375, 72 h, cut-off 30 µM; read-out: EC50
Experimental: as §1, §2

[11] = test system: Melanoma subpanel; experiment: NCI-60 screen, subpanel; details: Homo sapiens; for IC (TGI): 48 h, read-out: TGI MG_MID; for GI50: read-out: GI50 MG_MID
[12] = test system: HCT-116 (Colon cancer); experiment: NCI-60 screen (SRB, 48 h); details: Homo sapiens; for GI50: HCT-116; for IC (TGI): read-out: TGI
[13] = test system: A549/ATCC (NSC lung cancer); experiment: NCI-60 screen (SRB, 48 h); details: Homo sapiens; for GI50: A549; for IC (TGI): A549, 48 h, read-out: TGI
[14] = test system: SF-268 (CNS cancer); experiment: NCI-60 screen (SRB, 48 h); details: Homo sapiens; for GI50: SF-268; for IC (TGI): SF-268, 48 h, read-out: TGI
[15] = test system: DU-145 (Prostate cancer); experiment: NCI-60 screen (SRB, 48 h); details: Homo sapiens; for GI50: DU-145; for IC (TGI): DU-145, 48 h, read-out: TGI
[16] = test system: ACHN (Renal cancer); experiment: NCI-60 screen (SRB, 48 h); details: Homo sapiens; for IC (TGI): 48 h, read-out: TGI
[17] = test system: HT29 (Colon cancer); experiment: NCI-60 screen (SRB, 48 h); details: Homo sapiens; for GI50: HT-29; for IC (TGI): HT-29, 48 h, read-out: TGI
[18] = test system: 786-0 (Renal cancer); experiment: NCI-60 screen (SRB, 48 h); details: Homo sapiens; for GI50: 786-0; for IC (TGI): 786-0, 48 h, read-out: TGI
[19] = test system: NIH 3T3 (non-malignant mouse fibroblasts); experiment: SRB cytotoxicity assay, 72 h; assay type: cell-based; details: Mus musculus, NIH3T3; NIH 3T3, 72 h, cut-off 30 µM; read-out: EC50
Experimental: as §1, §2

[20] = test system: CCRF-CEM (Leukemia); experiment: NCI-60 screen (SRB, 48 h); details: Homo sapiens; for CC50: read-out: LC50
[21] = test system: T-47D (Breast cancer); experiment: NCI-60 screen (SRB, 48 h); details: Homo sapiens, T47D; for IC (TGI): 48 h, read-out: TGI
[22] = test system: UACC-62 (Melanoma); experiment: NCI-60 screen (SRB, 48 h); details: Homo sapiens; for GI50: UACC-62; for IC (TGI): UACC-62, 48 h, read-out: TGI
[23] = test system: SW-620 (Colon cancer); experiment: NCI-60 screen (SRB, 48 h); details: Homo sapiens; for GI50: SW-620

## C=C(C)[C@@H]1CC[C@]2(COS(=O)(=O)c3ccc(C)cc3)CC[C@]3(C)[C@@H](CC[C@@H]4[C@@]5(C)CCCNC(C)(C)[C@@H]5CC[C@]43C)[C@@H]12 [Compound 12]
[1]
  IC (TGI): 3.37 µM
  GI50: 1.79 µM
  CC50: 5.82 µM
[2]
  GI50: 1.65 µM
  IC (TGI): 3.13 µM
[3]
  GI50: 1.63 µM
  IC (TGI): 3.14 µM
  CC50: 6.04 µM
[4]
  GI50: 1.7 µM
  IC (TGI): 3.23 µM
[5]
  GI50: 1.66 µM
  IC (TGI): 3.23 µM
[6]
  EC50: 1.96 ± 0.3 µM
[7]
  EC50: 1.68 ± 0.1 µM
[8]
  EC50: 1.63 ± 0.1 µM
[9]
  EC50: 1.59 ± 0.1 µM
[10]
  EC50: 2.03 ± 0.1 µM
[11]
  IC (TGI): 3.42 µM
  GI50: 1.87 µM
[12]
  GI50: 1.79 µM
[12]; HCT-116, 48 h
  IC (TGI): 3.33 µM
[13]
  GI50: 1.87 µM
  IC (TGI): 3.5 µM
[14]
  GI50: 1.88 µM
  IC (TGI): 3.79 µM
[15]
  GI50: 1.77 µM
  IC (TGI): 3.3 µM
[16]
  GI50: 1.98 µM
  IC (TGI): 3.45 µM
[17]
  GI50: 1.93 µM
  IC (TGI): 3.5 µM
[18]
  GI50: 1.92 µM
  IC (TGI): 3.59 µM
[19]
  EC50: 1.94 ± 0.2 µM
[20]
  GI50: 2.28 µM
  CC50: > 100 µM
[21]
  GI50: 1.57 µM
  IC (TGI): 3.15 µM
[22]
  GI50: 2.05 µM
  IC (TGI): 3.64 µM
[23]
  GI50: 1.83 µM

## C=C(C)[C@@H]1CCC=C2CC[C@]3(C)[C@H](CC[C@@H]4[C@@]5(C)CCCNC(C)(C)[C@@H]5CC[C@]43C)[C@H]21 [Compound 8]
[1]
  IC (TGI): 3.5 µM
  GI50: 1.84 µM
  CC50: 6.78 µM
[2]
  GI50: 1.82 µM
  IC (TGI): 3.41 µM
[2]; HOP-62, read-out: LC50
  CC50: 6.38 µM
[3]
  GI50: 2.03 µM
  IC (TGI): 3.79 µM
  CC50: 7.08 µM
[4]
  GI50: 1.93 µM
  IC (TGI): 3.5 µM
[4]; NCI-H522, read-out: LC50
  CC50: 6.35 µM
[5]
  GI50: 1.88 µM
  IC (TGI): 3.45 µM
[5]; TK-10, read-out: LC50
  CC50: 6.32 µM
[6]
  EC50: 1.3 ± 0.2 µM
[7]
  EC50: 1.88 ± 0.2 µM
[8]
  EC50: 1.41 ± 0.1 µM
[9]
  EC50: 1.75 ± 0.2 µM
[10]
  EC50: 1.78 ± 0.1 µM
[11]
  IC (TGI): 3.46 µM
  GI50: 1.84 µM
[11]; read-out: LC50 MG_MID
  CC50: 6.73 µM
[12]
  GI50: 1.37 µM
[12]; HCT-116, 48 h, read-out: Growth % of the Most Sensitive Cell Lines
  activity at 10 µM: -96.2%
[12]; HCT-116, 48 h
  IC (TGI): 2.82 µM
[13]
  GI50: 2.02 µM
  IC (TGI): 3.73 µM
[13]; A549, read-out: LC50
  CC50: 6.89 µM
[14]
  GI50: 1.91 µM
  IC (TGI): 3.64 µM
[15]
  GI50: 1.77 µM
  IC (TGI): 3.33 µM
[15]; DU-145, read-out: LC50
  CC50: 6.26 µM
[16]
  GI50: 1.84 µM
  IC (TGI): 3.26 µM
[17]
  GI50: 1.2 µM
  IC (TGI): 2.58 µM
[17]; HT-29, read-out: LC50
  CC50: 5.56 µM
[18]
  GI50: 1.76 µM
  IC (TGI): 3.51 µM
[19]
  EC50: 2.41 ± 0.5 µM
[20]
  GI50: 2.27 µM
  CC50: > 100 µM
[20]; 48 h, read-out: TGI
  IC (TGI): 5.63 µM
[21]
  GI50: 1.72 µM
  IC (TGI): 3.47 µM
[21]; read-out: LC50
  CC50: 7 µM
[22]
  GI50: 1.73 µM
  IC (TGI): 3.16 µM
[22]; UACC-62, read-out: LC50
  CC50: 5.76 µM
[23]
  GI50: 1.92 µM
[23]; SW-620, 48 h, read-out: TGI
  IC (TGI): 3.75 µM
